According to US20100135992A1, “Prolongation of Survival of an Allograft by Inhibiting Complement Activity” (Alexion Pharmaceuticals, Inc., priority 2006, published 2010):

How the values were obtained:
[1] = test system: circulating anti-donor IgG and IgM antibodies; test: Flow cytometry of circulating anti-donor antibodies (heart model); format: in vivo, mouse; settings: POD3, presensitized heart recipients, FIG. 4A
Procedure: Flow Cytometry The circulating anti-donor specific IgG and IgM antibodies were evaluated in the recipient serum by FACScan flow cytometry (Becton Dickinson, Mountain View, Calif.). Glotz et al., (1993); Tyan et al. (1994). Briefly, C3H mouse splenocytes were isolated and incubated at 37° C. for 30 minutes with serum from naive control and experimental groups. To stain for total IgG, IgG1, IgG2a, IgG2b and IgM, the cells were washed and incubated with FITC-conjugated goat antibody specific for the Fc portion of mouse IgG or with phycoerythrin-conjugated goat antibody specific for the μ-chain of mouse IgM (Jackson ImmunoResearch Laboratories, West Grove, Pa.), or with FITC-conjugated goat anti-mouse IgG1 (CALTAG Laboratories, Burlingame, Calif.), or with FITC-conjugated goat anti-mouse IgG2a (CALTAG), or with FITC-conjugated goat anti-mouse IgG2b (CALTAG). After 1 hour of staining at 4° C., the cells were washed with PBS, resuspended at 5×10^6/mL, and analyzed by flow cytometry for mean channel fluorescence intensity, which represents the antibody-binding reactivity.

[2] = test system: C3H kidney allografts in presensitized BALB/c recipients; settings: for nephrotoxicity: kidney allograft model development
Source text: Animals Male adult C3H (H-2^k) mice and BALB/c (H-2^d mice (Jackson Labs, Bar Harbor, Me.) weighing 25-30 g were chosen as donors and recipients, respectively. Animals were housed under conventional conditions at the Animal Care Facility, The University of Western Ontario, and were cared for in accordance with the guidelines established by the Canadian Council on Animal Care.
Skin Presensitization Full-thickness skin grafts taken from C3H donors were cut into 1×1 cm^2 pieces and transplanted onto the backs of BALB/c recipient mice. Rejection was defined as complete necrosis of the skin grafts.
The donor ureter was also sutured to the recipient bladder using 10-0 sutures. The native kidneys were removed immediately after grafting. Graft rejection leading to host death was used as the endpoint of rejection for kidney transplants.
Measurement of Serum Creatinine Serum samples were obtained at study endpoint (time of rejection or POD100) after kidney transplantation. Serum creatinine levels were quantitated in 10 μL samples using the Sigma Diagnostics (Sigma, St. Louis, Mo.) procedure, which measures creatinine by a kinetic modification of the Jaffe reaction (Junge et al., 2004). Graft Histology At necropsy, tissue samples were processed for hematoxylin and eosin (H&E) staining (Wang et al, JI 2003) and evaluated for vasculitis, thrombosis, hemorrhage and lymphocyte infiltration; changes were scored as: 0, none; 1, minimal; 2, mild; 3, moderate or 4, marked compared to normal tissues.

[3] = test system: C3H heart allografts in presensitized BALB/c mice; test: Histological changes of heart allografts at necropsy (Example 4); format: in vivo, mouse; settings: endpoint, score 0 normal to 4 marked change
Source text: (§1) This model is designed to mimic presensitized transplantation in humans, especially in relation to accelerated humoral rejection. Recipient mice were split into eight groups of six to eight mice each. The treatments were as follow.

[4] = test system: C3H heart allografts in presensitized BALB/c recipients; test: C3H heart allograft survival and histology in skin-presensitized BALB/c recipients (Examples 1-2); format: in vivo, mouse; settings: FIG. 2A
Source text: Rejection was defined as complete necrosis of the skin grafts.
Specimens were then embedded in paraffin, and sectioned for H&E staining. The microscopic sections were examined in a blinded fashion for severity of rejection by a pathologist. Criteria for graft rejection included the presence of vasculitis, thrombosis, hemorrhage and lymphocyte infiltration. These changes were scored as: 0, no change; 1, minimum change; 2, mild change; 3, moderate change; or 4, marked change.

[5] = test system: terminal complement activity; test: Complement hemolytic assay of recipient mouse sera (heart model); format: in vivo; settings: POD3, presensitized heart recipients, FIG. 3
Procedure: Complement Hemolytic Assay The purified anti-C5 mAb was serially diluted twofold (175-0.1 μg/ml) in GVB^2+ buffer (gelatin Veronal-buffered saline: 0.1% gelatin, 141 mM NaCl, 0.5 mM MgCl2, 0.15 mM CaCl2, and 1.8 mM sodium barbital) and added in triplicate (50 μl/well) to a 96-well plate. BALB/c mouse serum was diluted to 40% v/v with GVB^2+ buffer and added ([…]) to the rows of the same 96-well plate such that the final concentration of BALB/c mouse serum in each well was 20%. The plate was then incubated at room temperature for approximately 30 min while chicken erythrocytes were prepared. Chicken erythrocytes were washed 5×1 ml with GVB^2+ buffer and resuspended to a final concentration of 5×10^7/ml in GVB^2+. Four milliliters of the chicken erythrocytes were sensitized by adding anti-chicken RBC polyclonal antibody (Intercell Technologies, Hopewell, N.J., 0.1% v/v) and the cells were incubated at 4° C. for 15 min with frequent vortexing. The cells were then washed 2×1 ml with GVB^2+ and resuspended to a final volume of 2.4 ml in GVB^2+. […] The plate was read at OD 415 nm using a microplate reader and the percentage of hemolysis was determined using this formula: […]
In the current study, terminal complement activity was measured by assessing the ability of recipient mouse sera to lyse antibody presensitized chicken erythrocytes and was compared at the same time-point (POD3).

[6] = test system: C3H heart allografts in presensitized BALB/c mice; test: Heart allograft survival, accelerated rejection in presensitized model (Example 4); format: in vivo, mouse; settings: presensitized recipients
Source text: In these experiments, the presensitization was brought about by prior transplantation of a skin graft. In general, presensitization can occur not only as a result of having received an earlier allograft, but can also be caused by having received multiple blood transfusions or in women who have been pregnant. Besides such presensitization methods, allografts with an ABO mismatch will be rapidly attacked and rejected because of preformed antibodies to the ABO antigens unless steps are taken to prevent such an attack.
as §1
Group 3″ (BB5.1 alone)—mice were administered the anti-mouse complement monoclonal antibody BB5.1 at a dose of 40 mg/kg body weight delivered intraperitoneally on a daily basis beginning at day −1 and continuing until the endpoint.
Group 4″ (cyclophosphamide alone)—mice were administered cyclophosphamide intravenously at a dose of 40 mg/kg body weight on each of days 0 and 1.
Group 6″ (BB5.1 plus cyclophosphamide)—mice were administered BB5.1 intraperitoneally at a dose of 40 mg/kg body weight on a daily basis beginning at day −1 and continuing until the endpoint. […]

[7] = test system: C3H heart allografts in presensitized BALB/c recipients; test: Immunoperoxidase staining of heart allografts in presensitized mouse recipients at necropsy; format: in vivo; parameters: key: 0, negative; 1+, equivocal; 2+, weak; 3+, moderate; 4+, intense; settings: heart allograft, POD 3
Source text: Immunohistochemistry Four micrometer sections were cut from tissue samples embedded in Tissue-Tek O.C.T gel (Optimum Cutting Temperature, Skura Finetek, Torrance, Calif.) mounted on gelatin-coated glass microscope slides and stained by a standard indirect avidin-biotin immunoperoxidase staining method using an Elite Vcctastain ABC kit (Vector Laboratories Inc., Burlingame, Calif.). Specimens were stained for CD4^+ and CD8^+ cells with biotin-conjugated rat anti-mouse CD4 mAb (clone YTS 191.1.2, Cedarlane Laboratories Ltd., Hornby, Ontario, Canada) and biotin-conjugated rat anti-mouse CD8 mAb (clone 53-6.7, Pharmingen, Franklin Lakes, N.J.), respectively. Intragraft monocyte/macrophage infiltration was detected by staining with biotin-conjugated rat anti-mouse Mac-1 mAb (Cedarlane Laboratories Ltd., Hornby, Ontario, Canada). Mouse IgG and IgM deposition in gratis was detected using biotin-conjugated goat anti-mouse-IgG and goat anti-mouse-IgM (Cedarlane). For identification of complement deposition, sections were serially incubated with goat anti-C3 or anti-C5 polyclonal Abs (Quidel, San Diego, Calif.), biotinylated rabbit anti-goat IgG (Vector Laboratories), and HRP-conjugated-streptavidin (Zymed Laboratories, South San Francisco, Calif.). Slides were washed with phosphate-buffered saline between steps, and examined under light microscopy. Negative controls were performed by omitting the primary antibodies. The immunostaining was scored in five high-power fields of each section, and five independent experiments were performed. The sections of immunoperoxidase staining were graded from 0 to 4+ according to the staining intensity: 0, negative; 1+, equivocal; 2+, weak staining; 3+, moderate staining; and 4+, very intensive staining.

[8] = test system: C3H kidney allografts in presensitized BALB/c recipients; test: Immunoperoxidase staining of kidney allografts in presensitized mouse recipients at necropsy; format: in vivo; parameters: key: 0, negative; 1+, equivocal; 2+, weak; 3+, moderate; 4+, intense; settings: kidney allograft, at the time of rejection
Source text: Immunohistochemistry Tissue samples embedded in Optimum Cutting Temperature (O.C.T.) gel (Skura Finetek, Torrance, Calif.) were sectioned and stained for CD4^+, CD8^+ and Mac-1^+ infiltrating cells and for IgG, IgM, C3 and C5 deposition using an Elite Vectastain ABC kit (Vector Laboratories Inc., Burlingame, Calif.). Primary biotinylated antibodies included anti-CD4 (YTS 191.1.2, Cedarlane Laboratories Ltd., Hornby, Ontario, Canada), anti-CD8 (53-6.7, BD Biosciences, Franklin Lakes, N.J.) and anti-Mac-1 (Cedarlane). Intragraft IgG and IgM deposition was detected using biotinylated goat anti-mouse-IgG and goat anti-mouse-IgM (Cedarlane). Complement deposition was detected following serial incubation with goat anti-mouse C3 or anti-mouse C5 polyclonal Abs (Quidel, San Diego, Calif.), biotinylated rabbit anti-goat IgG (Vector Laboratories), and HRP-conjugated-streptavidin (Zymed Laboratories, South San Francisco, Calif.). Negative controls were performed by omitting the primary antibodies. The immunostaining was scored in five high-power fields of each section using tissue samples from five animals per experimental group. Immunoreactivity was graded from 0 to 4+ according to staining intensity as follows: 0, negative; 1+, equivocal; 2+, weak; 3+, moderate; and 4+, very intensive staining.

[9] = test system: Bcl-2 and Bcl-xl proteins; test: Western blot of kidney grafts; format: in vivo, mouse; settings: POD100 (accommodated) or rejected grafts, FIG. 14
Source text: Western Blot Analysis Frozen kidney samples were sonicated, separated by electrophoresis and transferred to polyvinylidene difluoride (PVDF; Invitrogen) membranes. Intragraft expression of Bcl-2 and Bcl-XS/L was detected using the polyclonal sera N-19 and M-125, respectively (Santa Cruz Biotechnology, Inc.). Polyclonal anti-calsequestrin (Calbiochem) served as a sample loading control (Kobayashi et al., 1999). Antibody binding was detected by horseradish-peroxidase-conjugated goat anti-rabbit IgG and enhanced chemiluminescence development (Roche Laboratories) (Arp et al., 1996).

[10] = test system: circulating anti-donor IgG and IgM antibodies; test: Flow cytometry of circulating anti-donor antibodies (kidney model); format: in vivo, mouse
Procedure: Flow Cytometry Circulating anti-donor specific IgG and IgM antibodies were evaluated in recipient sera by flow cytometry. Briefly, C3H mouse splenocytes were isolated and incubated at 37° C. for 30 minutes with serum samples obtained at the indicated timepoints from mice from the various treatment groups. To stain for total IgG or specific antibody subclasses, the washed cells were incubated with FITC-conjugated goat anti-mouse antibodies specific for the Fc portion of mouse IgG, mouse IgG1, mouse IgG2a, mouse IgG2b or mouse IgG3 (all from (CALTAG Laboratories, Burlingame, Calif.) or with a phycoerythrin-conjugated goat antibody specific for mouse IgM (Jackson ImmunoResearch Laboratories, West Grove, Pa.) for 1 hour at 4° C., washed and analyzed on a FACScan flow cytometer (Becton Dickinson, Mountain View, Calif.) (Collins et al., 1999; Pratt et al., 1996). The results are expressed as mean channel fluorescence intensity as a measure of the level of each anti-donor isotype in the samples.

[11] = test system: terminal complement activity; test: Complement hemolytic assay of recipient mouse sera (kidney model); format: in vivo; settings: POD7, presensitized kidney recipients, FIG. 12
Procedure: Complement Hemolytic Assay Terminal complement activity in recipient mouse sera was determined by standard methods to assess the ability of sera to lyse chicken erythrocytes presensitized with erythrocyte-specific antibodies as previously described (Wang et al., 1999).

[12] = test system: cardiac allograft in presensitized rats; settings: cyclosporin A 10 mg/kg/day i.m., sCR1 15 mg/kg single i.v. bolus; cited from earlier work

O=P1(N(CCCl)CCCl)NCCCO1 (centres unmarked) [CyP, cyclophosphamide]
circulating anti-donor IgG levels [1]: partially down-regulated | nephrotoxicity [2]: significant nephrotoxicity | Hemo (hemorrhage) median score [3]: 2.0 | Infar (infarction) median score [3]: 4.0 | Lymph (lymphocyte infiltration) median score [3]: 0.0 | Throm (thrombosis) median score [3]: 3.0 | Vasc (vasculitis) median score [3]: 2.0 | heart graft survival (time to rejection) [4]: 3.3 ± 0.5 days | terminal complement activity (lysis of antibody presensitized chicken erythrocytes by recipient sera) [5]: no effect | Mean survival time [6]: 3.3 ± 0.5 days | C3 immunoperoxidase staining grade [7]: 3+ | C5 immunoperoxidase staining grade [7]: 3+ | CD4 immunoperoxidase staining grade [7]: 1+ | CD8 immunoperoxidase staining grade [7]: 1+ | IgG immunoperoxidase staining grade [7]: 3+ | IgM immunoperoxidase staining grade [7]: 1+ | Mac-1 immunoperoxidase staining grade [7]: 3+

C[C@@H](N)CCNCCCCNC(=O)OCC(=O)NCCCCCCNC(=N)N [LF, LF15-0195]
C3 immunoperoxidase staining [8]: 3+ | C5 immunoperoxidase staining [8]: 3+ | IgG immunoperoxidase staining [8]: 3+ | IgM immunoperoxidase staining [8]: 1+ | Mac-1 immunoperoxidase staining [8]: 4+ | expression of Bcl-2 and Bcl-xl proteins in kidney grafts [9]: undetectable | circulating anti-donor IgG levels ([10]; kidney recipients at time of rejection, triple-therapy POD 100, FIG. 13A): partially reduced | predominant anti-donor IgG subclass ([10]; presensitized kidney recipients, FIG. 13B): IgG1, IgG2a and IgG3 | nephrotoxicity [2]: not associated with nephrotoxicity | kidney graft survival (time to rejection) ([2]; presensitized recipients, FIG. 11A): 6.0 ± 1.0 days | terminal/serum complement activity (in vitro serum hemolytic assay) [11]: no inhibitory effect

sCR1: soluble complement receptor 1, binds complements C3b and C4b
average time of graft rejection [12]: 44 days
